IC50 data for 20 molecules are collected here from patent publication US10123995B2, “Factor XIa inhibitors” (MERCK SHARP & DOHME CORP., priority 2015, dated 2018).

A value given as a limit tells only on which side of the number the result lay.

For assay [1], the target named is purified human Factor XIa (Homo sapiens (Human), UniProt P03951). In words: Factor XIa Assay. The class given is biochemical. The following applies: Factor XIa inhibition; substrate Z-Gly-Pro-Arg-AFC, pH 7.4; read-out: hFXIa IC50. The procedure:
The effectiveness of a compound of the present invention as an inhibitor of Coagulation Factor XIa can be determined using a relevant purified serine protease, and an appropriate synthetic substrate. The rate of hydrolysis of the chromogenic or fluorogenic substrate by the relevant serine protease was measured both in the absence and presence of compounds of the present invention. Assays were conducted at room temperature or at 37° C. […] A decrease in the rate of fluorescence change in the presence of inhibitor is indicative of enzyme inhibition. Such methods are known to one skilled in the art. […]
Factor XIa determinations were made in 50 mM HEPES buffer at pH 7.4 containing 150 mM NaCl, 5 mM CaCl2, and 0.1% PEG 8000 (polyethylene glycol; JT Baker or Fisher Scientific). Determinations were made using purified human Factor XIa at a final concentration of 40 pM (Sekisui Diagnostics) and the synthetic substrate, Z-Gly-Pro-Arg-AFC, TFA salt (Sigma #C0980) at a concentration of 100 μM.
Activity assays were performed by diluting a stock solution of substrate at least tenfold to a final concentration ≤0.1 Km into a solution containing enzyme or enzyme equilibrated with inhibitor. Times required to achieve equilibration between enzyme and inhibitor were determined in control experiments. Initial velocities of product formation in the absence (Vo) or presence of inhibitor (Vi) were measured. Assuming competitive inhibition, and that unity is negligible compared Km/[S], [I]/e, and [I]/e (where [S], [I], and e respectively represent the total concentrations, of substrate, inhibitor and enzyme), the equilibrium constant (Ki) for dissociation of the inhibitor from the enzyme can be obtained from the dependence of Vo/Vi on [I] shown in the following equation. Vo/Vi=1+[I]/Ki

The target of assay [2] is purified Human plasma kallikrein (Homo sapiens (Human), UniProt P03952). Description: Kallikrein Assay. The assay is classed as biochemical. The following applies: table titled Kalikrein inhibition (column head prints hFXIa), substrate Acetyl-K-P-R-AFC, pH 7.4. The procedure: The effectiveness of a compound of the present invention as an inhibitor of Kallikrein can be determined using a relevant purified serine protease, and an appropriate synthetic substrate. The rate of hydrolysis of the chromogenic or fluorogenic substrate by the relevant serine protease was measured both in the absence and presence of compounds of the present invention. Assays were conducted at room temperature or at 37° C. […] A decrease in the rate of fluorescence change in the presence of inhibitor is indicative of enzyme inhibition. Such methods are known to one skilled in the art. The results of this assay are expressed as the inhibitory constant, Ki.
Chain of purified Human plasma kallikrein (P03952 391-638): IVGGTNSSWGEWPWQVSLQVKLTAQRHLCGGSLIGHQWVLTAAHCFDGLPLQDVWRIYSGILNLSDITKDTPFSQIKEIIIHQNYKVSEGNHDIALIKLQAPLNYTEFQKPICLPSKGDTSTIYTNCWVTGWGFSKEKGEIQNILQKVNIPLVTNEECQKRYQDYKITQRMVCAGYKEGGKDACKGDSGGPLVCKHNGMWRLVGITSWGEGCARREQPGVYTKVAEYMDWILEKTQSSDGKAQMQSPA
Chain of purified Human plasma kallikrein (P03952 20-390 partner): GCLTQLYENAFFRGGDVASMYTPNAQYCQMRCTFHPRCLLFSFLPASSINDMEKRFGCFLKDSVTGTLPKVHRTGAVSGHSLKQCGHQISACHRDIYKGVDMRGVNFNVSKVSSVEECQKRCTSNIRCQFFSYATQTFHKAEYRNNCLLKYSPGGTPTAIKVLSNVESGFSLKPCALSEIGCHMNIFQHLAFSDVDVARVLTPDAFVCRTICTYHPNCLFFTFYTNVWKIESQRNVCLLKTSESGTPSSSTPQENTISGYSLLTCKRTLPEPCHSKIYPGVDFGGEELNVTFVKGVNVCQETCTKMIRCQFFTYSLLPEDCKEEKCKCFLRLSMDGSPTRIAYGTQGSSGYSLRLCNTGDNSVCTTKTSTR
Kallikrein determinations were made in 50 mM HEPES buffer at pH 7.4 containing 150 mM NaCl, 5 mM CaCl2, and 0.1% PEG 8000 (polyethylene glycol; Fisher Scientific). Determinations were made using purified Human plasma kallikrein at a final concentration of 0.5 nM (Enzyme Research Laboratories) and the synthetic substrate, Acetyl-K-P-R-AFC (Sigma # C6608) at a concentration of […].
Activity assays were performed by diluting a stock solution of substrate at least tenfold to a final concentration ≤0.2 Km into a solution containing enzyme or enzyme equilibrated with inhibitor. Times required to achieve equilibration between enzyme and inhibitor were determined in control experiments. The reactions were performed under linear progress curve conditions and fluorescence increase measured at 405 Ex/510 Em nm. Values were converted to percent inhibition of the control reaction (after subtracting 100% Inhibition value). IC50 was determined by inflection point from a four parameter logistic curve fit. Ki was calculated using the Cheng Prusoff equation, Ki=IC50/(1+([S]/Km)).

Chain of purified human Factor XIa (P03951 388-625): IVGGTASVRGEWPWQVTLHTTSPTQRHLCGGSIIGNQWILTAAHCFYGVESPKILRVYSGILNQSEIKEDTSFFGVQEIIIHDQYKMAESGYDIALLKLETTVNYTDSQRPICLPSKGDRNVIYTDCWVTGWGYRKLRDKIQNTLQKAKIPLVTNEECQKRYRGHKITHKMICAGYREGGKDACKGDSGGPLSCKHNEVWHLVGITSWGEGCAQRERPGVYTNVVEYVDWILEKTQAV
Chain of purified human Factor XIa (P03951 19-387 partner): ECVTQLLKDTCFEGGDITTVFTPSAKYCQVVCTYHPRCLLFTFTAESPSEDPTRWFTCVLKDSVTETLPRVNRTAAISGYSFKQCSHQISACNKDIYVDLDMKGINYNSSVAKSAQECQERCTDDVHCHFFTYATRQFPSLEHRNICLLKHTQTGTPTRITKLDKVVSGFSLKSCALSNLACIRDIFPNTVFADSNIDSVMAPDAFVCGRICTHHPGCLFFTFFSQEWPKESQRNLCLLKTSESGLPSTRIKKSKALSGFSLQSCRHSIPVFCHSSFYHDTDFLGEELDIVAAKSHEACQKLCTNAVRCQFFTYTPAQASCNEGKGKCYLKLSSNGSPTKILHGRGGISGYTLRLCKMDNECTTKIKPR

As for `O=C(O)c1ccc(NC(=O)C2CC(O)c3cc(-c4cc(Cl)ccc4-n4cnnn4)c[n+]([O-])c32)cc1` (racemic) [Example 6, 4-[({3-[5-chloro-2-(1H-tetrazol-1-yl)phenyl]-5-hydroxy-1-oxido-6,7-dihydro-5H-cyclopenta[b]pyridin-7-yl}carbonyl)amino]benzoic acid], the IC50 in assay [1] worked out at 10.5 nM; in assay [2], 700 nM.

Regarding `O=C(O)c1ccc(NC(=O)C2CC(O)c3cc(-c4cc(Cl)ccc4-n4cnnn4)c[n+]([O-])c32)cc1` (single isomer, unassigned) [Example 5], the IC50 came out at 3.6 nM in assay [1] and 504 nM in assay [2].

In the case of `O=C(O)c1ccc(NC(=O)C2CC(O)c3cc(-c4cc(Cl)ccc4-n4cnnn4)c[n+]([O-])c32)cc1` (single isomer, unassigned) [Example 7], the concentration for half-maximal inhibition (IC50) came to 8.6 nM in assay [1] and 1720 nM in assay [2].

As for `O=C(O)c1ccc(NC(=O)C2(O)CC(O)c3cc(-c4cc(Cl)ccc4-n4cnnn4)c[n+]([O-])c32)cc1` (single isomer, unassigned) [Example 9, 4-[({3-[5-Chloro-2-(1H-tetrazol-1-yl)phenyl]-5,7-dihydroxy-1-oxido-6,7-dihydro-5H-cyclopenta[b]pyridin-7-yl}carbonyl)amino]benzoic acid], the IC50 in assay [1] stood at 2.9 nM; in assay [2] it was 460 nM.

Consider `O=C(O)c1ccc(NC(=O)C2(O)CC(O)c3cc(-c4cc(Cl)ccc4-n4cnnn4)c[n+]([O-])c32)cc1` (single isomer, unassigned) [Example 10, 4-[({3-[5-Chloro-2-(1H-tetrazol-1-yl)phenyl]-5,7-dihydroxy-1-oxido-6,7-dihydro-5H-cyclopenta[b]pyridin-7-yl}carbonyl)amino]benzoic acid], for which the IC50 in assay [1] is 2.7 nM; in assay [2], 530 nM.

In the case of `O=C(O)c1ccc(NC(=O)C2(O)CC(O)c3cc(-c4cc(Cl)ccc4-n4cnnn4)c[n+]([O-])c32)cc1` (single isomer, unassigned) [Example 11, 4-[({3-[5-Chloro-2-(1H-tetrazol-1-yl)phenyl]-5,7-dihydroxy-1-oxido-6,7-dihydro-5H-cyclopenta[b]pyridin-7-yl}carbonyl)amino]benzoic acid], the IC50 in assay [1] was determined as 104 nM.

For the molecule `O=C(O)c1ccc(NC(=O)C2(O)CC(O)c3cc(-c4cc(Cl)ccc4-n4cnnn4)c[n+]([O-])c32)cc1` (single isomer, unassigned) [Example 12, 4-[({3-[5-Chloro-2-(1H-tetrazol-1-yl)phenyl]-5,7-dihydroxy-1-oxido-6,7-dihydro-5H-cyclopenta[b]pyridin-7-yl}carbonyl)amino]benzoic acid], in assay [1], the IC50 amounted to 202 nM.

On to `O=C(O)c1ccc(NC(=O)C2(O)CC(F)c3cc(-c4cc(Cl)ccc4-n4cnnn4)c[n+]([O-])c32)cc1` (single isomer, unassigned) [Example 13, 4-[({3-[5-Chloro-2-(1H-tetrazol-1-yl)phenyl]-5-fluoro-7-hydroxy-1-oxido-6,7-dihydro-5H-cyclopenta[b]pyridin-7-yl}carbonyl)amino]benzoic acid], for which the IC50 in assay [1] amounted to 3.7 nM; in assay [2] it was 202 nM.

`O=C(O)c1ccc(NC(=O)C2(O)CC(F)c3cc(-c4cc(Cl)ccc4-n4cnnn4)c[n+]([O-])c32)cc1` (single isomer, unassigned) [Example 14, 4-[({3-[5-Chloro-2-(1H-tetrazol-1-yl)phenyl]-5-fluoro-7-hydroxy-1-oxido-6,7-dihydro-5H-cyclopenta[b]pyridin-7-yl}carbonyl)amino]benzoic acid]: the IC50 in assay [1] came out at 219 nM.

`O=C(O)c1ccc(NC(=O)C2(F)CC(F)c3cc(-c4cc(Cl)ccc4-n4cnnn4)c[n+]([O-])c32)cc1` (single isomer, unassigned) [Example 15, 4-[({3-[5-Chloro-2-(1H-tetrazol-1-yl)phenyl]-5,7-difluoro-1-oxido-6,7-dihydro-5H-cyclopenta[b]pyridin-7-yl}carbonyl)amino]benzoic acid]: the IC50 in assay [1] came to 14.1 nM; in assay [2], 4920 nM.

As to `O=C(O)c1ccc(NC(=O)C2(F)CC(F)c3cc(-c4cc(Cl)ccc4-n4cnnn4)c[n+]([O-])c32)cc1` (single isomer, unassigned) [Example 16, 4-[({3-[5-Chloro-2-(1H-tetrazol-1-yl)phenyl]-5,7-difluoro-1-oxido-6,7-dihydro-5H-cyclopenta[b]pyridin-7-yl}carbonyl)amino]benzoic acid], in assay [1], the IC50 is 85.6 nM.

Consider `O=C(O)c1ccc(NC(=O)C2(F)CC(F)c3cc(-c4cc(Cl)ccc4-n4cnnn4)c[n+]([O-])c32)cc1` (single isomer, unassigned) [Example 17, 4-[({3-[5-Chloro-2-(1H-tetrazol-1-yl)phenyl]-5,7-difluoro-1-oxido-6,7-dihydro-5H-cyclopenta[b]pyridin-7-yl}carbonyl)amino]benzoic acid], for which, in assay [1], the IC50 was 4440 nM.

Turning to `O=C(O)c1ccc(NC(=O)C2(F)CC(F)c3cc(-c4cc(Cl)ccc4-n4cnnn4)c[n+]([O-])c32)cc1` (single isomer, unassigned) [Example 18, 4-[({3-[5-Chloro-2-(1H-tetrazol-1-yl)phenyl]-5,7-difluoro-1-oxido-6,7-dihydro-5H-cyclopenta[b]pyridin-7-yl}carbonyl)amino]benzoic acid], the IC50 in assay [1] is 9450 nM.

With `O=C(O)c1ccc(NC(=O)C2(CC3CC3)CCc3cc(-c4cc(Cl)ccc4-n4cnnn4)c[n+]([O-])c32)cc1` (single isomer, unassigned) [Example 21, 7-((4-carboxyphenyl)carbamoyl)-3-(5-chloro-2-(1H-tetrazol-1-yl)phenyl)-7-(cyclopropylmethyl)-6,7-dihydro-5H-cyclopenta[b]pyridine 1-oxide], the IC50 in assay [1] was over 870 nM.

With `O=C(O)c1ccc(NC(=O)C2(CC3CC3)CCc3cc(-c4cc(Cl)ccc4-n4cnnn4)c[n+]([O-])c32)cc1` (single isomer, unassigned) [Example 22, 7-((4-carboxyphenyl)carbamoyl)-3-(5-chloro-2-(1H-tetrazol-1-yl)phenyl)-7-(cyclopropylmethyl)-6,7-dihydro-5H-cyclopenta[b]pyridine 1-oxide], the IC50 in assay [1] stood at 178 nM.

As to `O=C(O)c1ccc(NC(=O)C2CCc3cc(-c4cc(Cl)ccc4-n4cnnn4)c[n+]([O-])c32)cc1` (stereo not shown) [Example 1, 4-[({3-[5-chloro-2-(1H-tetrazol-1-yl)phenyl]-1-oxido-6,7-dihydro-5H-cyclopenta[b]pyridin-7-yl}carbonyl)amino]benzoic acid], the figures for the IC50 in assay [1] and in assay [2] were 3.8 nM and 473 nM, respectively.

As to `O=C(NC12CCC(C(=O)O)(CC1)CC2)C1CCc2cc(-c3cc(Cl)ccc3-n3cnnn3)c[n+]([O-])c21` (stereo not shown) [Example 2, 7-((4-carboxybicyclo[2.2.2]octan-1-yl)carbamoyl)-3-(5-chloro-2-(1H-tetrazol-1-yl)phenyl)-6,7-dihydro-5H-cyclopenta[b]pyridine=1-oxide], in assay [1], the IC50 turned out to be 2000 nM.

Turning to `O=C(O)c1ccc(NC(=O)[C@H]2CCc3cc(-c4c(F)ccc(Cl)c4F)c[n+]([O-])c32)cc1` [Example 3, 4-({[(7S)-3-(3-chloro-2,6-difluorophenyl)-1-oxido-6,7-dihydro-5H-cyclopenta[b]pyridin-b7-yl]carbonyl}amino)benzoic acid], the IC50 in assay [1] was determined as 2920 nM.

With `O=C(O)c1ccc(NC(=O)[C@@H]2CCc3cc(-c4c(F)ccc(Cl)c4F)c[n+]([O-])c32)cc1` [Example 4, 4-({[(7R)-3-(3-chloro-2,6-difluorophenyl)-1-oxido-6,7-dihydro-5H-cyclopenta[b]pyridin-7-yl]carbonyl}amino)benzoic acid], the IC50 in assay [1] is 2370 nM.

Regarding `COC(=O)Nc1ccc(C(=O)NC2CCc3cc(-c4cc(Cl)ccc4-n4cnnn4)c[n+]([O-])c32)cc1` (stereo not shown) [Example 20, 3-(5-Chloro-2-(H-tetrazol-1-yl)phenyl)-7-(4-((methoxycarbonyl)amino)benzamido)-6,7-dihydro-5H-cyclopenta[b]pyridine 1-oxide], the IC50 in assay [1] is 894 nM.
